The record followed here is patent US11053234B2 (GlaxoSmithKline Intellectual Property Development Limited, priority 2016, dated 2021).

The test system of one assay is normal mice. Put plainly: in vivo assay for muscle function following limb muscle injury. As to conditions: FIG. 1.
The target of assay [1] is T1, haematopoietic prostaglandin D synthase (H-PGDS) (Homo sapiens, UniProt O60760).
T1 construct: Full length human H-PGDS cDNA (Invitrogen Ultimate ORF 10H13026) was amplified by PCR; 6-His (N); TEV protease cleavage site (N); made in house; host or cells: E. coli BL21 (DE3*), vector pET22b+
Kind of assay: H-PGDS RapidFire high throughput mass spectrometry assay (conversion of PGH2 to PGD2). The conditions noted are these: 10 nM H-PGDS, PGH2 formed in situ by COX-2 from arachidonic acid; read-out: Potency Range (mean pIC50) (converted). Format: biochemical. The method in brief: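 RapidFire SPE–MS read-out calculated percent conversion from relative PGD2 and PGF2α (substrate surrogate) levels. Recombinant full-length human H-PGDS (His-tag, E. coli) turned over PGH2, produced in situ at ˜10 μM by human COX-2 (FLAG-tag, Sf9 cells) acting on arachidonic acid.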

The test system of another assay is male C57BI/6N mice. Kind of assay: In vivo assay for functional response to muscle injury (eccentric contraction-induced muscle fatigue). More on the design: species or system mouse. The conditions noted are these: vs vehicle, FIG. 1. The text has this:
In Vivo Assays for Functional Response to Muscle Injury
Under anesthesia, the right hind limb of a mouse is restrained at the knee and the foot attached to a motorized footplate/force transducer. Needle electrodes are inserted into the upper limb, either side of the sciatic nerve and a current sufficient to elicit a maximal muscle contraction is applied. Muscle tension is produced by moving the footplate to lengthen the plantarflexor muscles while the limb is under maximal stimulation. This is repeated 60 times to fatigue the muscles of the lower limb. Anesthesia, limb immobilization and limb stimulation are then repeated at regular intervals to measure maximal isometric force in the recovering limb. 7 to 9 animals are tested for each test condition.

The structures appear in SMILES notation.

T1 sequence (O60760 whole entry): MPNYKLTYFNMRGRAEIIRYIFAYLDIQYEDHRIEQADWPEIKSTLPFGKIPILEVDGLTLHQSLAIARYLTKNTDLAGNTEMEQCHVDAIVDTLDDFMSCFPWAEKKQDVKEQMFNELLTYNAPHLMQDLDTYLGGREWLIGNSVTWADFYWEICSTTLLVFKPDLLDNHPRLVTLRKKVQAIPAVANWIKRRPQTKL

Take `CC(C)(O)[C@H]1CC[C@H](NC(=O)N2CC(Oc3cc(F)cc4scnc34)C2)CC1` [Example 141, 3-((6-Fluorobenzo[d]thiazol-4-yl)oxy)-N-((trans)-4-(2-hydroxypropan-2-yl)cyclohexyl)azetidine-1-carboxamide]: the “functional repair dose response curves of H-PGDS inhibition following limb muscle injury” value in the assay with normal mice was “protection and acceleration of functional repair”. Besides, the IC50 in assay [1] was 10 to 79.4 nM. Besides, the “kinetics of recovery of maximal isometric force after eccentric contraction injury” value with male C57BI/6N mice (PO 3, 10 and 30 mg/kg BID beginning 10 min prior to eccentric contraction challenge) is listed as “acceleration in the kinetics of recovery”. Further, the “initial magnitude of the injury, isometric limb force 24-hours following protocol initiation” value in the assay with male C57BI/6N mice (PO 3, 10 and 30 mg/kg BID, 24 hours) is given as “reduced the initial magnitude of the injury”. Turning to `CC(C)c1nsc(NC(=O)N2CC(Oc3cccc4scnc34)C2)n1` [Example 337, 3-(Benzo[d]thiazol-4-yloxy)-N-(3-isopropyl-1,2,4-thiadiazol-5-yl)azetidine-1-carboxamide], the IC50 in assay [1] was < 10 nM.

For `O=C(Nc1nc(C2CC2)ns1)N1CC(Oc2cccc3scnc23)C1` [Example 338, 3-(Benzo[d]thiazol-4-yloxy)-N-(3-cyclopropyl-1,2,4-thiadiazol-5-yl)azetidine-1-carboxamide], the IC50 in assay [1] is < 10 nM. Turning to `CC(C)(C)c1nsc(NC(=O)N2CC(Oc3cccc4scnc34)C2)n1` [Example 339], the IC50 in assay [1] was 10 to 79.4 nM.
